PubChem BioAssay AID2842 (Southern Research Institute, 2010)
Converted amounts (≈) assume the structure as drawn.

Test system: M. tuberculosis H37Rv growth inhibition
Experiment: Mycobacterium tuberculosis H37Rv growth inhibition, putative kinase inhibitor library, confirmatory dose response (AID 2842);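 further: bacteria incubated one week before Alamar blue readout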

Structure (SMILES) | IC90 [µg/mL]
O=C(Nc1nnc(-c2ccccc2)o1)c1ccco1 | 2.78 (≈ 10.9 µM)
O=C(Nc1nnc(-c2ccc3c(c2)OCCO3)o1)c1nc2ccccc2s1 | 25.8 (≈ 67.9 µM)
O=C(Cc1cccc2ccccc12)Nc1nnc(-c2cccs2)o1 | 40.1 (≈ 120 µM)
Cc1ccc(NC(=O)CC2Nc3cccc4cccc(c34)NC2=O)cc1 (centres undefined) | 61.8 (≈ 179 µM)
COc1ccc(OC)c(Nc2nc(NCCN(C)C)nc3c2cnn3-c2ccccc2)c1 | 7.29 (≈ 16.8 µM)
O=C(Nc1nc2c(s1)COc1ccccc1-2)c1cccc(NS(=O)(=O)c2ccc(F)cc2)c1 | 13.4 (≈ 27.8 µM)
CCOc1ccc2c(c1)O/C(=C\c1cccc(OCC(=O)OC)c1)C2=O | 1.66 (≈ 4.68 µM)
CC(C)c1ccc2nc(Nc3nc4ccc(S(C)(=O)=O)cc4s3)sc2c1 | 12 (≈ 29.8 µM)
c1ccc(-c2csc(Nc3nc4cc5c(cc4s3)OCO5)n2)nc1 | 1.79 (≈ 5.05 µM)
CC(C)(C)c1ccc(C(=O)Nc2nnc(-c3ccccn3)o2)cc1 | 8.06 (≈ 25 µM)
CC1(C)CC(=O)c2sc(NC(=O)c3ccc(NS(=O)(=O)c4ccc(Cl)cc4)cc3)nc2C1 | 15.5 (≈ 31.7 µM)
O=C(Nc1nnc(-c2cc(Cl)ccc2Cl)o1)c1nc2ccccc2s1 | 10.5 (≈ 26.7 µM)
Cc1n[nH]c(=O)nc1N/N=C/c1cccc(OCc2ccccc2Cl)c1 | 35.9 (≈ 97.2 µM)
CCOc1ccc2nc(SC3CC(=O)N(c4ccc(N5CCCCC5)cc4)C3=O)sc2c1 (centres undefined) | 24.8 (≈ 53 µM)
COc1ccccc1-c1nnc(NC(=O)Cc2ccc(SC)cc2)o1 | 52.6 (≈ 148 µM)
COc1cc2c3nnc(-c4ccc(C)cc4)c-3cn(Cc3ccc(Cl)cc3)c2cc1OC | 4.8 (≈ 10.8 µM)
Fc1ccc2nc(Nc3nc(-c4ccc(Cl)s4)cs3)sc2c1 | 7.87 (≈ 21.4 µM)
COC(=O)c1c(NC(=O)c2ccc3c(c2)CCCC3)sc2c1CCN(C(C)=O)C2 | 6.21 (≈ 15.1 µM)
N#C/C(=C\Nc1ccccc1)c1nc2ccccc2[nH]1 | 3.25 (≈ 12.5 µM)
c1ccc2sc(Nc3nc4cc5c(cc4s3)OCO5)nc2c1 | 18.6 (≈ 56.9 µM)
Cc1ccc2sc(NNC(=O)C3COc4ccccc4O3)nc2c1C (centres undefined) | 0.88 (≈ 2.48 µM)
CCOC(=O)c1c(NC(=O)Cc2cccc3ccccc23)sc2c1CC(C)(C)NC2(C)C | 2.08 (≈ 4.62 µM)
COc1cc2ccccc2cc1C(=O)Nc1nnc(-c2cc(Cl)ccc2Cl)o1 | 27.6 (≈ 66.5 µM)

Structure (SMILES) | IC90 [µg/mL]
CSc1ccc2nc(Nc3nnc(-c4ccc5c(c4)OCCO5)o3)sc2c1 | 15.1 (≈ 38 µM)
COc1ccc(C(=O)Nc2nnc(-c3cc(C)ccc3C)o2)c(OC)c1 | 13.4 (≈ 38 µM)
O=C(CN1C(=O)CCC1=O)Nc1nnc(-c2ccc3c(c2)CCCC3)o1 | 27.6 (≈ 78 µM)
COc1ccc(OC)c(NC(=O)c2cc3cc(Cl)ccc3oc2=O)c1 | 0.77 (≈ 2.14 µM)
O=C(Nc1nnc(-c2ccc3c(c2)CCCC3)o1)c1ccccc1Cl | 1.11 (≈ 3.14 µM)
CC(C)(C)c1ccc(C(=O)Nc2nc(-c3ccc4c(c3)OCO4)cs2)cc1 | 6.72 (≈ 17.7 µM)
O=C(OC1CCCCC1)c1cc2ccccc2oc1=O | 49 (≈ 180 µM)
Cc1cccc2sc(NNC(=O)c3cccc(F)c3)nc12 | 9.09 (≈ 30.2 µM)
O=C(Cc1ccc(F)cc1)N(CCCn1ccnc1)c1nc2ccc(F)cc2s1 | 3.39 (≈ 8.22 µM)
O=C(Nc1nnc(-c2cccnc2)o1)c1ccccc1Cl | 53.5 (≈ 178 µM)
Cc1ccc(CC(=O)N(CCCn2ccnc2)c2nc3ccccc3s2)c(C)c1 | 4.82 (≈ 11.9 µM)
CSc1nnc(C)c(=O)n1COC(=O)/C=C/c1ccc2c(c1)OCO2 | 11.2 (≈ 31 µM)
CCOC(=O)c1ccc2nc(Nc3nc4ccc(OC)cc4s3)sc2c1 | 29 (≈ 75.3 µM)
Cc1ccc(C(=O)Nc2nnc(C3=COCCO3)o2)cc1 | 2.78 (≈ 9.68 µM)
COc1ccc(O)c(/C=N/NC(=O)c2ccncc2)c1 | 0.82 (≈ 3.02 µM)
O=C(Cc1ccccc1)Nc1nnc(-c2ccc3c(c2)OCCO3)o1 | 15.8 (≈ 47 µM)
COc1ccc(-c2nnc(NC(=O)c3ccc(Cl)cc3Cl)o2)cc1 | 14.1 (≈ 38.7 µM)
O=C(CCCN1C(=O)/C(=C\c2ccco2)SC1=S)Nc1ccccn1 | 4.87 (≈ 13 µM)
COC(=O)c1ccc(NC(=O)CSc2nc(-c3cccc(C)c3)ns2)cc1 | < 0.2
CCc1ccc(OCC(=O)Nc2ccc(OC)cc2)cc1 | 12.7 (≈ 44.3 µM)
Cc1cc(C)cc(OCCCn2c(CO)nc3ccccc32)c1 | 14 (≈ 45 µM)
O=C1c2cccc3cccc(c23)C(=O)N1CCc1ccc(S(=O)(=O)N2CCCCC2)cc1 | 5.87 (≈ 13.1 µM)
COc1ccc(Cn2cc(C(=O)c3ccc(C)cc3)c(=O)c3cc(OC)c(OC)cc32)cc1 | 7.05 (≈ 15.9 µM)

Structure (SMILES) | IC90 [µg/mL]
COc1ccc(C)c2sc(N(CCCn3ccnc3)C(=O)c3ccc(Cl)s3)nc12 | 2.69 (≈ 6.02 µM)
COc1cccc2sc(N(CCCn3ccnc3)C(=O)c3ccco3)nc12 | 12.4 (≈ 32.5 µM)
Cc1ccc(-c2nnc(NC(=O)c3ccco3)o2)c(C)c1 | 4.51 (≈ 15.9 µM)
CCOc1cccc2sc(Nc3nc4ccc(OC)cc4s3)nc12 | 3.19 (≈ 8.92 µM)
C=CCOC(=O)COc1ccc2c(-c3cc4ccccc4oc3=O)cc(=O)oc2c1 | 4.35 (≈ 10.8 µM)
COc1cc2c(=O)c(C(=O)c3ccc(F)cc3)cn(Cc3ccc(C)cc3)c2cc1OC | 7.24 (≈ 16.8 µM)
OCCN1CCN(c2nc(Nc3cccc(Cl)c3)c3cnn(-c4ccccc4)c3n2)CC1 | 0.73 (≈ 1.62 µM)
Cc1ccc2c(c1)C(c1ccccc1)N(C(=O)c1ccc(-c3ccccc3)cc1)CC(=O)N2 (centres undefined) | 5.05 (≈ 11.7 µM)
CC(C)Cn1c(N2CCN(Cc3ccc(Cl)c(Cl)c3)CC2)nc2c1c(=O)[nH]c(=O)n2C | 1.43 (≈ 3.07 µM)
CCOC(=O)N1CCc2c(sc(NC(=O)CCSc3ccccc3)c2C(N)=O)C1 | 8.5 (≈ 19.6 µM)
CC(C)(C)c1ccc(C(=O)N2CC(=O)Nc3ccc(Cl)cc3C2c2ccc(F)cc2)cc1 (centres undefined) | 9.95 (≈ 22.1 µM)
CCSc1ccc(CC(=O)Nc2nnc(-c3ccc4c(c3)OCCO4)o2)cc1 | 3.57 (≈ 8.98 µM)
COC(=O)c1ccc(C(=O)NNc2nc3c(C)cc(C)cc3s2)cc1 | 6.49 (≈ 18.3 µM)
CC(C)(C)C(=O)Nc1nnc(C2=COCCO2)o1 | 48.6 (≈ 192 µM)
COc1ccc2nc(N(CCCn3ccnc3)C(=O)c3cccc(OC)c3OC)sc2c1 | 11.3 (≈ 24.9 µM)
CC(C)N1CCc2c(sc(NC(=O)c3ccc([N+](=O)[O-])s3)c2C(N)=O)C1 | 6.33 (≈ 16 µM)
OCCOCCNc1nc(Nc2cccc(F)c2)nc2c1cnn2-c1ccccc1 | 4.91 (≈ 12 µM)
COC(=O)C(C)Oc1ccc2cc(-c3ccc(OC)cc3)c(=O)oc2c1 (centres undefined) | 1.07 (≈ 3.02 µM)
O=C(Nc1nnc(-c2ccc(Br)cc2)o1)C1COc2ccccc2O1 (centres undefined) | 7.27 (≈ 18.1 µM)
O=C(NCCCSc1nc2ccccc2o1)Nc1ncccn1 | 25.1 (≈ 76.1 µM)
O=C(NC1NC(c2ccccc2)=CS1)c1ccc([N+](=O)[O-])s1 (centres undefined) | 3.42 (≈ 10.3 µM)
COc1cccc(NC(=O)c2ccc(COc3cccc(C)c3)o2)c1 | 11.7 (≈ 34.7 µM)
CCC(CO)Nc1ncnc2c1cnn2-c1ccc(Cl)c(Cl)c1 (centres undefined) | 14.2 (≈ 40.5 µM)

Structure (SMILES) | IC90 [µg/mL]
CCN(C1CCCCC1)S(=O)(=O)c1ccc(C(=O)Nc2nnc(-c3ccc(F)cc3)o2)cc1 | 5.64 (≈ 11.9 µM)
Cc1ccc2cc(CCNC(=S)NCCn3ccc4ccccc43)c(=O)[nH]c2c1 | 1.26 (≈ 3.11 µM)
C=CCNC(=S)NNc1ccc([N+](=O)[O-])cc1 | 10 (≈ 39.6 µM)
COc1ccc(C)c2sc(N(CCCn3ccnc3)C(=O)Cc3ccccc3)nc12 | 21.1 (≈ 50.3 µM)
COc1cccc2sc(Nc3nnc(-c4cccs4)o3)nc12 | 3.36 (≈ 10.2 µM)
O=C(Nc1nnc(-c2ccco2)o1)c1ccc(Oc2ccccc2)cc1 | < 0.2
CCOC(=O)/C=C/CSc1nc2sc3c(c2c(=O)[nH]1)CCCC3 | 12.8 (≈ 36.6 µM)
O=C(Nc1nnc(-c2ccc(Cl)s2)o1)c1c(F)cccc1F | 3.8 (≈ 11.1 µM)
C=CCOC(=O)C1=C(C)NC(SCC(=O)OCC)=C(C#N)C1c1cccs1 (centres undefined) | 4.44 (≈ 11 µM)
COc1ccc(-c2nnc3c4cc(OC)c(OC)cc4n(Cc4ccccc4OC)cc2-3)cc1 | 5.67 (≈ 12.4 µM)
CC1CCCN(Cc2c(O)ccc3c(=O)c(-c4nc5ccccc5s4)c(N)oc23)C1 (centres undefined) | 2.89 (≈ 6.86 µM)
NC(=O)c1c(NC(=O)c2ccc([N+](=O)[O-])o2)sc2c1CCCCC2 | 0.52 (≈ 1.49 µM)
O=C(Nc1nnc(-c2ccc3c(c2)CCCC3)o1)c1ccccc1F | 0.93 (≈ 2.76 µM)
COc1ccc(Cl)c2sc(N(CCCn3ccnc3)C(=O)c3cccs3)nc12 | 1.72 (≈ 3.97 µM)
O=C(Nc1nnc(-c2ccco2)o1)c1cc(Cl)ccc1Cl | 4.99 (≈ 15.4 µM)
N#Cc1ccc(C(=O)Nc2nnc(-c3ccc4c(c3)CCCC4)o2)cc1 | 1.71 (≈ 4.97 µM)
COc1ccc2sc(Nc3nnc(-c4ccco4)o3)nc2c1 | 80 (≈ 255 µM)
CCCc1cc(-c2nc(N)ncc2-c2ccc3c(c2)OCO3)c(O)cc1OC | 17.6 (≈ 46.4 µM)
O=C(CCc1ccccc1)Nc1nnc(-c2cc(Cl)ccc2Cl)o1 | 26.6 (≈ 73.4 µM)
COc1ccc(-c2nnc(NC(=O)C3CC3)o2)cc1 | 1.06 (≈ 4.09 µM)
CCCOc1ccc(S(=O)(=O)Nc2ccc3c(c2)CCC(=O)N3CC)cc1 | 13 (≈ 33.5 µM)
Oc1ccc(Br)cc1C1CC(c2ccoc2)=NN1 (centres undefined) | 25.3 (≈ 82.4 µM)
O=C(Nc1nnc(-c2cc(Cl)ccc2Cl)o1)c1ccccc1Cl | 1.66 (≈ 4.5 µM)

Structure (SMILES) | IC90 [µg/mL]
CCOc1ccc2nc(N(CCCn3ccnc3)C(=O)c3cccs3)sc2c1 | 3.43 (≈ 8.31 µM)
COc1ccc(-c2nnc(NC(=O)c3ccccc3F)o2)cc1 | 66.9 (≈ 214 µM)
COc1cccc(-c2nnc(NC(=O)c3ccc(Cl)cc3)o2)c1 | 33.8 (≈ 102 µM)
COc1ccc(C)c2sc(NNC(=O)c3nc4ccccc4s3)nc12 | 38 (≈ 103 µM)
Cc1ccc(C)c2sc(N(CCCn3ccnc3)C(=O)c3ccc(F)cc3)nc12 | 4.35 (≈ 10.6 µM)
CC(=O)N1CCc2c(sc(NC(=O)c3cccc(C)c3)c2C(N)=O)C1 | 17.1 (≈ 47.8 µM)
Cc1nc2ccc(NC(=O)Nc3cccc(Cl)c3)cc2s1 | 22.3 (≈ 70.1 µM)
OCc1nc2ccccc2n1CC(O)COc1ccc(Br)cc1 (centres undefined) | 10.2 (≈ 27 µM)
O=C(OCn1nnc2ccccc2c1=O)C(c1ccccc1)c1ccccc1 | 8.87 (≈ 23.9 µM)
COc1ccc(-c2nc(N3CCC(C)CC3)nc3n[nH]c(N)c23)cc1 | 2.14 (≈ 6.32 µM)
CCCCC(=O)Nc1nnc(-c2cc(Cl)ccc2Cl)o1 | 32.4 (≈ 103 µM)
CCCCc1ccc2nc(Nc3nc4ccc(S(C)(=O)=O)cc4s3)sc2c1 | 31.8 (≈ 76.1 µM)
Cc1ccc(-c2nnc(NC(=O)CCSc3ccccc3)o2)c(C)c1 | 15.1 (≈ 42.7 µM)
O=C(Nc1nnc(-c2ccc3c(c2)CCCC3)o1)c1ccc([N+](=O)[O-])s1 | 0.68 (≈ 1.84 µM)
Cc1ccc(-n2ncc3c(=O)n(CC(=O)Nc4ccc([N+](=O)[O-])cc4)cnc32)cc1 | 6.91 (≈ 17.1 µM)
O=C(CC(SCc1ccco1)c1cccc([N+](=O)[O-])c1)c1ccco1 (centres undefined) | < 0.2
O=C(Cc1ccccc1)Nc1nnc(-c2ccc3c(c2)CCCC3)o1 | 55.8 (≈ 167 µM)
COc1cccc(-c2nnc(SCC(=O)Nc3cc(C)on3)o2)c1 | 3.26 (≈ 9.41 µM)
O=C(CCc1ccccc1)Nc1nnc(-c2cccs2)o1 | 42.8 (≈ 143 µM)
Cc1ccc(C)c(-c2nnc(NC(=O)c3ccc(C#N)cc3)o2)c1 | 23.1 (≈ 72.5 µM)
Cc1ccc(-c2nnc(NC(=O)c3ccc(Br)s3)o2)c(C)c1 | 2.17 (≈ 5.74 µM)
O=C(Nc1nnc(-c2ccc(Cl)s2)o1)c1nc2ccccc2s1 | 4.81 (≈ 13.3 µM)
